Measurements from patent publication US8299077B2 (Roche Palo Alto LLC, priority 2009, dated 2012).
pIC50: −log10 of the molar value.

These compounds were tested on B cell receptor-mediated activation of B cells in human blood (CD69 expression) (assay: Inhibition of B cell activation in whole blood measured by CD69 expression). Conditions: anti-IgM stimulation, 20 h, 50% decrease of CD69-positive cells that are also CD20-positive.
Format: cell-based
Description: Inhibition of B Cell Activation in Whole Blood Measured by CD69 Expression
A procedure to test the ability of Btk inhibitors to suppress B cell receptor-mediated activation of B cells in human blood is as follows:
Human whole blood (HWB) is obtained from healthy volunteers, with the following restrictions: 24 hr drug-free, non-smokers. Blood is collected by venipuncture into Vacutainer tubes anticoagulated with sodium heparin. Test compounds are diluted to ten times the desired starting drug concentration in PBS (20×), followed by three-fold serial dilutions in 10% DMSO in PBS to produce a nine point dose-response curve. 5.5 μl of each compound dilution is added in duplicate to a 2 ml 96-well V bottom plate (Analytical Sales and Services, #59623-23); 5.5 μl of 10% DMSO in PBS is added to control and no-stimulus wells. HWB (100 μl) is added to each well, and after mixing the plates are incubated at 37 C, 5% CO2, 100% humidity for 30 minutes. Goat F(ab′)2 anti-human IgM (Southern Biotech, #2022-14) (10 μl of a 500 μg/ml solution, 50 μg/ml final concentration) is added to each well (except the no-stimulus wells) with mixing and the plates are incubated for an additional 20 hours.
At the end of the 20 hour incubation, samples are incubated with florescent-probe-labeled anti-bodies (15 μl PE Mouse anti-Human CD20, BD Pharmingen, #555623, and/or 20 ul APC Mouse anti-Human CD69, BD Pharmingen #555533) for 30 minutes, at 37 C, 5% CO2, 100% humidity. Included are induced control, unstained and single stains for compensation adjustments and initial voltage settings. Samples are then lysed with 1 ml of 1× Pharmingen Lyse Buffer (BD Pharmingen #555899), and plates are centrifuged at 1800 rpm for 5 minutes. Supernatants are removed via suction and the remaining pellets are lysed again with another 1 ml of 1× Pharmingen Lyse Buffer, and plates are spun down as before. Supernatants are aspirated and remaining pellets are washed in FACs buffer (PBS+1% FBS). After a final spin, the supernantants are removed and pellets are resuspended in 180 μl of FACs buffer. Samples are transferred to a 96 well plate suitable to be run on the HTS 96 well system on the BD LSR II flow cytometer.
Using appropriate excitation and emission wavelengths for the fluorophores used, data are acquired and percent positive cell values are obtained using Cell Quest Software. Results are initially analyzed by FACS analysis software (Flow Jo). […] The IC50 values are calculated using XLfit software version 3, equation 201.

Point of comparison: CN1CCN(Cc2ccc(Nc3cc(-c4cccc(N5CCc6cc(C7CC7)cc(F)c6C5=O)c4CO)cn(C)c3=O)nc2)CC1 [Example I-11, 6-Cyclopropyl-8-fluoro-2-(2-hydroxymethyl-3-{1-methyl-5-[5-(4-methyl-piperazin-1-ylmethyl)-pyridin-2-ylamino]-6-oxo-1,6-dihydro-pyridin-3-yl}-phenyl)-3,4-dihydro-2H-isoquinolin-1-one], pIC50 7.24. Against it:
- CN1CCN(c2ccc(Nc3cc(-c4cccc(-n5ccc6cc(N(C)C)cc(F)c6c5=O)c4CO)cn(C)c3=O)nc2)CC1 [Example I-4, 6-Dimethylamino-8-fluoro-2-(2-hydroxymethyl-3-{1-methyl-5-[5-(4-methyl-piperazin-1-yl)-pyridin-2-ylamino]-6-oxo-1,6-dihydro-pyridin-3-yl}-phenyl)-2H-isoquinolin-1-one] — 0.72 log units higher, 7.96
- CCNC(=O)Nc1cc(-c2cccc(N3CCc4cc(C(C)(C)C#N)cc(F)c4C3=O)c2CO)cn(C)c1=O [Example I-5, 1-(5-{3-[6-(Cyano-dimethyl-methyl)-8-fluoro-1-oxo-3,4-dihydro-1H-isoquinolin-2-yl]-2-hydroxymethyl-phenyl}-1-methyl-2-oxo-1,2-dihydro-pyridin-3-yl)-3-ethyl-urea] — 1.27 log units lower, 5.97
- Cn1cc(-c2cccc(-n3ncc4cc(C(C)(C)C)cc(F)c4c3=O)c2CO)cc(Nc2ccc(C(=O)N3CCOCC3)cn2)c1=O [Example I-9, 6-tert-Butyl-8-fluoro-2-(2-hydroxymethyl-3-{1-methyl-5-[5-(morpholine-4-carbonyl)-pyridin-2-ylamino]-6-oxo-1,6-dihydro-pyridin-3-yl}-phenyl)-2H-phthalazin-1-one] — 1.76 log units higher, 9.00
- CCN1CCN(c2ccc(Nc3cc(-c4cccc(N5CCc6cc(C7CC7)cc(F)c6C5=O)c4CO)cn(C)c3=O)nc2)CC1 [Example I-12, 6-Cyclopropyl-2-(3-{5-[5-(4-ethyl-piperazin-1-yl)-pyridin-2-ylamino]-1-methyl-6-oxo-1,6-dihydro-pyridin-3-yl}-2-hydroxymethyl-phenyl)-8-fluoro-3,4-dihydro-2H-isoquinolin-1-one] — within 0.2 log units, 7.37
- Cn1cc(-c2cccc(N3CCc4cc(C5CC5)cc(C#N)c4C3=O)c2CO)cc(Nc2ccc(S(C)(=O)=O)cn2)c1=O [Example I-13, 6-Cyclopropyl-2-{2-hydroxymethyl-3-[5-(5-methanesulfonyl-pyridin-2-ylamino)-1-methyl-6-oxo-1,6-dihydro-pyridin-3-yl]-phenyl}-1-oxo-1,2,3,4-tetrahydro-isoquinoline-8-carbonitrile] — 1.85 log units lower, 5.39
- Cn1cc(-c2cccc(-n3ncc4cc(C(C)(C)C)cc(F)c4c3=O)c2CO)cc(Nc2ccc(N3CCNCC3)cn2)c1=O [Example I-14, 6-tert-Butyl-8-fluoro-2-{2-hydroxymethyl-3-[1-methyl-6-oxo-5-(5-piperazin-1-yl-pyridin-2-ylamino)-1,6-dihydro-pyridin-3-yl]-phenyl}-2H-phthalazin-1-one] — 0.28 log units higher, 7.52
- Cn1cc(-c2cccc(-n3ncc4cc(C(C)(C)C)cc(F)c4c3=O)c2CO)cc(Nc2ccc(C3CCNCC3)cn2)c1=O [Example I-16, 6-tert-Butyl-8-fluoro-2-{3-[5-(1′,2′,3′,4′,5′,6′-hexahydro-[3,4′]bipyridinyl-6-ylamino)-1-methyl-6-oxo-1,6-dihydro-pyridin-3-yl]-2-hydroxymethyl-phenyl}-2H-phthalazin-1-one] — within 0.2 log units, 7.32
- Cn1cc(-c2cccc(-n3ncc4cc(C(C)(C)C)cc(F)c4c3=O)c2CO)cc(Nc2ccc(N3CCC(C)(O)CC3)cn2)c1=O [Example I-17, 6-tert-Butyl-8-fluoro-2-{2-hydroxymethyl-3-[5-(4-hydroxy-4-methyl-3,4,5,6-tetrahydro-2H-[1,3′]bipyridinyl-6′-ylamino)-1-methyl-6-oxo-1,6-dihydro-pyridin-3-yl]-phenyl}-2H-phthalazin-1-one] — 0.76 log units higher, 8.00
- Cn1cc(-c2cccc(-n3ncc4cc(C(C)(C)C)cc(F)c4c3=O)c2CO)cc(Nc2ccc(S(C)(=O)=O)cn2)c1=O [Example I-18, 6-tert-Butyl-8-fluoro-2-{2-hydroxymethyl-3-[5-(5-methanesulfonyl-pyridin-2-ylamino)-1-methyl-6-oxo-1,6-dihydro-pyridin-3-yl]-phenyl}-2H-phthalazin-1-one] — 0.72 log units higher, 7.96
- Cn1cc(-c2cccc(-n3ncc4cc(C(C)(C)C)cc(F)c4c3=O)c2CO)cc(Nc2ccc(OCCO)cn2)c1=O [Example I-19] — 0.61 log units higher, 7.85
- Cn1cc(-c2cccc(-n3ncc4cc(C(C)(C)C)cc(F)c4c3=O)c2CO)cc(Nc2ccc(C(C)(C)C(=O)O)cn2)c1=O [Example I-20, 2-(6-{5-[3-(6-tert-Butyl-8-fluoro-1-oxo-1H-phthalazin-2-yl)-2-hydroxymethyl-phenyl]-1-methyl-2-oxo-1,2-dihydro-pyridin-3-ylamino}-pyridin-3-yl)-2-methyl-propionic acid] — within 0.2 log units, 7.39
- Cn1cc(-c2cccc(-n3ncc4cc(C(C)(C)C)cc(F)c4c3=O)c2CO)cc(Nc2ccc(C(C)(C)C(=O)N3CCOCC3)cn2)c1=O [Example I-21, 6-tert-Butyl-2-(3-{5-[5-(1,1-dimethyl-2-morpholin-4-yl-2-oxo-ethyl)-pyridin-2-ylamino]-1-methyl-6-oxo-1,6-dihydro-pyridin-3-yl}-2-hydroxymethyl-phenyl)-8-fluoro-2H-phthalazin-1-one] — 0.72 log units higher, 7.96
- CN(C)C(=O)C(C)(C)c1ccc(Nc2cc(-c3cccc(-n4ncc5cc(C(C)(C)C)cc(F)c5c4=O)c3CO)cn(C)c2=O)nc1 [Example I-22, 2-(6-{5-[3-(6-tert-Butyl-8-fluoro-1-oxo-1H-phthalazin-2-yl)-2-hydroxymethyl-phenyl]-1-methyl-2-oxo-1,2-dihydro-pyridin-3-ylamino}-pyridin-3-yl)-N,N-dimethyl-isobutyramide] — 0.61 log units higher, 7.85
- Cn1ccc(Nc2cc(-c3cccc(-n4ncc5cc(C(C)(C)C)cc(F)c5c4=O)c3CO)cn(C)c2=O)nc1=O [Example I-23, 6-tert-Butyl-8-fluoro-2-{2-hydroxymethyl-3-[1-methyl-5-(1-methyl-2-oxo-1,2-dihydro-pyrimidin-4-ylamino)-6-oxo-1,6-dihydro-pyridin-3-yl]-phenyl}-2H-phthalazin-1-one] — 0.83 log units lower, 6.41
- Cn1cc(-c2cccc(-n3ncc4cc(C(C)(C)C)cc(F)c4c3=O)c2CO)cc(Nc2ccc(CO)cn2)c1=O [Example I-26, 6-tert-Butyl-8-fluoro-2-{2-hydroxymethyl-3-[5-(5-hydroxymethyl-pyridin-2-ylamino)-1-methyl-6-oxo-1,6-dihydro-pyridin-3-yl]-phenyl}-2H-phthalazin-1-one] — 0.20 log units lower, 7.04
- Cc1c(-c2cc(Nc3ccc(N4CCN(C)CC4)cn3)c(=O)n(C)c2)cccc1-n1ncc2cc(C(C)(C)C)cc(F)c2c1=O [Example I-28, 6-tert-Butyl-8-fluoro-2-(2-methyl-3-{1-methyl-5-[5-(4-methyl-piperazin-1-yl)-pyridin-2-ylamino]-6-oxo-1,6-dihydro-pyridin-3-yl}-phenyl)-2H-phthalazin-1-one] — 0.50 log units lower, 6.74
- CCOCCNC(=O)C(C)(C)c1ccc(Nc2cc(-c3cccc(-n4ncc5cc(C(C)(C)C)cc(F)c5c4=O)c3CO)cn(C)c2=O)nc1 [Example I-29, 2-(6-{5-[3-(6-tert-Butyl-8-fluoro-1-oxo-1H-phthalazin-2-yl)-2-hydroxymethyl-phenyl]-1-methyl-2-oxo-1,2-dihydro-pyridin-3-ylamino}-pyridin-3-yl)-N-(2-ethoxy-ethyl)-isobutyramide] — 0.28 log units higher, 7.52
- CN1CC(Oc2ccc(Nc3cc(-c4cccc(-n5ncc6cc(C(C)(C)C)cc(F)c6c5=O)c4CO)cn(C)c3=O)nc2)C1 [Example I-30, 6-tert-Butyl-8-fluoro-2-(2-hydroxymethyl-3-{1-methyl-5-[5-(1-methyl-azetidin-3-yloxy)-pyridin-2-ylamino]-6-oxo-1,6-dihydro-pyridin-3-yl}-phenyl)-2H-phthalazin-1-one] — 0.76 log units higher, 8.00
- CNC(=O)C(C)(C)c1ccc(Nc2cc(-c3cccc(-n4ncc5cc(C(C)(C)C)cc(F)c5c4=O)c3CO)cn(C)c2=O)nc1 [Example I-32, 2-(6-{5-[3-(6-tert-Butyl-8-fluoro-1-oxo-1H-phthalazin-2-yl)-2-hydroxymethyl-phenyl]-1-methyl-2-oxo-1,2-dihydro-pyridin-3-ylamino}-pyridin-3-yl)-N-methyl-isobutyramide] — 0.23 log units higher, 7.47
- CCc1ccc(Nc2cc(-c3cccc(-n4ncc5cc(C(C)(C)C)cc(F)c5c4=O)c3CO)cn(C)c2=O)nc1 [Example I-33, 6-tert-Butyl-2-{3-[5-(5-ethyl-pyridin-2-ylamino)-1-methyl-6-oxo-1,6-dihydro-pyridin-3-yl]-2-hydroxymethyl-phenyl}-8-fluoro-2H-phthalazin-1-one] — 0.58 log units lower, 6.66
